Test results as given in patent US6706663B2, “Herbicidal 3-heterocyclic substituted benzisothiazole and benzisoxazole compounds” (Wyeth, priority 2000, dated 2004).

Experiments:
[1] = tested on: SAGPY (Sagittaria pygmaea); assay: Flooded paddy, preemergence weed control; assay type: in vivo, L.; conditions: rated 3-4 weeks after treatment, 0-9 rating scale
How it was run: (§1)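 In this preemergence paddy assay, weed seeds or organs are sown at up to 0.5 cm in silt loam and covered by 1.5–3 cm of water for the full test period. After treatment the pots are kept in a greenhouse, and herbicidal effect is rated 0-9 visually against a control.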

ZEAMX (Corn, Field) [2] = assay: Preemergence herbicidal evaluation; assay type: in vivo, Zea mays, L.; conditions: rated 4-5 weeks after treatment
GALAP (Galium aparine) [3] = assay: Postemergence herbicidal evaluation; assay type: in vivo; conditions: postemergence
How it was run: (§2)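 Seedlings grown about two weeks in flats, sprayed, then kept under standard greenhouse care. Rated visually 4–5 weeks after treatment on a 0–9 scale (stand, vigour, malformation, size, chlorosis, overall appearance) relative to untreated control; repeat tests averaged.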

[4] = tested on: TRZAWR (Wheat, Winter, cv Riband); assay: Preemergence herbicidal evaluation; assay type: in vivo, Triticum aestivum; conditions: rated 4-5 weeks after treatment
How it was run: (§3)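 Applied before emergence as an aqueous acetone spray over seeded soil. Read-out: 0–9 visual rating covering plant stand, vigor, size, chlorosis, malformation and overall appearance compared with control, taken 4–5 weeks after spraying.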

[5] = tested on: AMBEL (Ambrosia artemisifolia); assay: Preemergence herbicidal evaluation; assay type: in vivo, L.; conditions: rated 4-5 weeks after treatment
How it was run: as §3

[6] = tested on: CHEAL (Chenopodium album); assay: Preemergence herbicidal evaluation; assay type: in vivo, L.; conditions: rated 4-5 weeks after treatment
How it was run: as §3

[7] = tested on: CASOB (Cassia obtusifolia); assay: Preemergence herbicidal evaluation; assay type: in vivo, L.; conditions: rated 4-5 weeks after treatment
How it was run: as §3

[8] = tested on: CYPSE (Cyperus serotinus); assay: Flooded paddy, preemergence weed control; assay type: in vivo, Rottb.; conditions: rated 3-4 weeks after treatment, 0-9 rating scale
How it was run: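 Herbicidal effect was scored visually on a 0–9 scale against an untreated control 3–4 weeks after treatment. Compounds were applied preemergence as 50/50 v/v aqueous/acetone mixtures into flood water (1.5–3 cm deep over silt loam), at roughly 0.0080 to 0.1250 kg/ha active ingredient.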

[9] = tested on: ECHCG (Echinochloa crus-galli); assay: Postemergence herbicidal evaluation; assay type: in vivo, (L.) Beau; conditions: postemergence
How it was run: as §2

CYPIR (Cyperus iria) = assay: Flooded paddy, preemergence weed control; assay type: in vivo; conditions: rated 3-4 weeks after treatment, 0-9 rating scale
How it was run: as §1

[10] = tested on: IPOHE (Ipomoea hederacea); assay: Postemergence herbicidal evaluation; assay type: in vivo, (L.) Jacq.; conditions: postemergence
How it was run: as §2

[11] = tested on: IPOHE (Ipomoea hederacea); assay: Preemergence herbicidal evaluation; assay type: in vivo, (L.) Jacq.; conditions: rated 4-5 weeks after treatment
[12] = tested on: AMBEL (Ambrosia artemisifolia); assay: Postemergence herbicidal evaluation; assay type: in vivo, L.; conditions: postemergence
How it was run: as §2

[13] = tested on: CHEAL (Chenopodium album); assay: Postemergence herbicidal evaluation; assay type: in vivo, L.; conditions: postemergence
How it was run: as §2

[14] = tested on: CASOB (Cassia obtusifolia); assay: Postemergence herbicidal evaluation; assay type: in vivo, L.; conditions: postemergence
How it was run: as §2

[15] = tested on: ABUTH (Abutilon theophrasti); assay: Postemergence herbicidal evaluation; assay type: in vivo, Medic.; conditions: postemergence
How it was run: as §2

ORYSAT (Rice, Tebonnet) = assay: Preemergence herbicidal evaluation; assay type: in vivo, Oryza sativa, (L.) Tebonnet; conditions: rated 4-5 weeks after treatment
[16] = tested on: ECHORC (Echinochloa oryzoides); assay: Flooded paddy, preemergence weed control; assay type: in vivo, Echinochloa oryzoides (Ard.) Fritsch.; conditions: rated 3-4 weeks after treatment, 0-9 rating scale
How it was run: as §1

[17] = tested on: GLXMAW (Soybean, Williams); assay: Preemergence herbicidal evaluation; assay type: in vivo, Glycine max, (L.) Merr. cv Williams; conditions: rated 4-5 weeks after treatment
ZEAMX (Corn, Field) [18] = assay: Postemergence herbicidal evaluation; assay type: in vivo, Zea mays, L.; conditions: postemergence
How it was run: as §2

[19] = tested on: GLXMAW (Soybean, Williams); assay: Postemergence herbicidal evaluation; assay type: in vivo, Glycine max, (L.) Merr. cv Williams; conditions: postemergence
How it was run: as §2

GALAP (Galium aparine) [20] = assay: Preemergence herbicidal evaluation; assay type: in vivo; conditions: rated 4-5 weeks after treatment
How it was run: as §3

C[C@@H]1C[C@H](C)OC(c2nsc3ccc(-n4c(=O)cc(C(F)(F)F)n(C)c4=O)cc23)O1 (stereo partly drawn) [Compound 50, 3-[3-[(4R,6S)-4,6-dimethyl-m-dioxan-2-yl]-1,2-benzisothiazol-5-yl]-1-methyl-6-(trifluoromethyl)uracil]
herbicidal rating, SAGPY ([1]; rate 0.0080 kg/ha): 0.0 | herbicidal rating, SAGPY ([1]; rate 0.0320 kg/ha): 0.0 | herbicidal rating, SAGPY ([1]; rate 0.1250 kg/ha): 4.5 | Preemergence herbicidal rating ZEAMX (ZEAMX (Corn, Field) [2]; Rate 0.0620 kg/ha): 9.0 | Preemergence herbicidal rating ZEAMX (ZEAMX (Corn, Field) [2]; Rate 0.1250 kg/ha): 9.0 | Preemergence herbicidal rating ZEAMX (ZEAMX (Corn, Field) [2]; Rate 0.2500 kg/ha): 9.0 | GALAP herbicidal rating (GALAP (Galium aparine) [3]; rate 0.0320 kg/ha): 3.0 | GALAP herbicidal rating (GALAP (Galium aparine) [3]; rate 0.0620 kg/ha): 8.0 | Preemergence herbicidal rating TRZAWR ([4]; Rate 0.0620 kg/ha): 7.0 | Preemergence herbicidal rating TRZAWR ([4]; Rate 0.1250 kg/ha): 8.0 | Preemergence herbicidal rating TRZAWR ([4]; Rate 0.2500 kg/ha): 9.0 | Preemergence herbicidal rating AMBEL ([5]; Rate 0.0620 kg/ha): 9.0 | Preemergence herbicidal rating AMBEL ([5]; Rate 0.1250 kg/ha): 9.0 | Preemergence herbicidal rating AMBEL ([5]; Rate 0.2500 kg/ha): 9.0 | Preemergence herbicidal rating CHEAL ([6]; Rate 0.0620 kg/ha): 9.0 | Preemergence herbicidal rating CHEAL ([6]; Rate 0.1250 kg/ha): 9.0 | Preemergence herbicidal rating CHEAL ([6]; Rate 0.2500 kg/ha): 9.0 | Preemergence herbicidal rating CASOB ([7]; Rate 0.0620 kg/ha): 5.5 | Preemergence herbicidal rating CASOB ([7]; Rate 0.1250 kg/ha): 6.5 | Preemergence herbicidal rating CASOB ([7]; Rate 0.2500 kg/ha): 9.0 | herbicidal rating, CYPSE ([8]; rate 0.0320 kg/ha): 5.0 | herbicidal rating, CYPSE ([8]; rate 0.1250 kg/ha): 7.0 | ECHCG herbicidal rating ([9]; rate 0.0320 kg/ha): 3.0 | ECHCG herbicidal rating ([9]; rate 0.0620 kg/ha): 3.0 | herbicidal rating, CYPIR (CYPIR (Cyperus iria); rate 0.0080 kg/ha): 0.0 | herbicidal rating, CYPIR (CYPIR (Cyperus iria); rate 0.0320 kg/ha): 7.5 | herbicidal rating, CYPIR (CYPIR (Cyperus iria); rate 0.1250 kg/ha): 8.0 | IPOHE herbicidal rating ([10]; rate 0.0320 kg/ha): 9.0 | IPOHE herbicidal rating ([10]; rate 0.0620 kg/ha): 9.0 | Preemergence herbicidal rating IPOHE ([11]; Rate 0.0620 kg/ha): 8.0 | Preemergence herbicidal rating IPOHE ([11]; Rate 0.1250 kg/ha): 7.5 | Preemergence herbicidal rating IPOHE ([11]; Rate 0.2500 kg/ha): 9.0 | AMBEL herbicidal rating ([12]; rate 0.0320 kg/ha): 9.0 | AMBEL herbicidal rating ([12]; rate 0.0620 kg/ha): 9.0 | CHEAL herbicidal rating ([13]; rate 0.0320 kg/ha): 8.0 | CHEAL herbicidal rating ([13]; rate 0.0620 kg/ha): 9.0 | CASOB herbicidal rating ([14]; rate 0.0320 kg/ha): 5.0 | CASOB herbicidal rating ([14]; rate 0.0620 kg/ha): 5.0 | ABUTH herbicidal rating ([15]; rate 0.0320 kg/ha): 9.0 | ABUTH herbicidal rating ([15]; rate 0.0620 kg/ha): 9.0 | Preemergence herbicidal rating ORYSAT (ORYSAT (Rice, Tebonnet); Rate 0.0620 kg/ha): 6.5 | Preemergence herbicidal rating ORYSAT (ORYSAT (Rice, Tebonnet); Rate 0.1250 kg/ha): 8.5 | Preemergence herbicidal rating ORYSAT (ORYSAT (Rice, Tebonnet); Rate 0.2500 kg/ha): 9.0 | herbicidal rating, ECHORC ([16]; rate 0.0080 kg/ha): 7.0 | herbicidal rating, ECHORC ([16]; rate 0.0320 kg/ha): 7.5 | herbicidal rating, ECHORC ([16]; rate 0.1250 kg/ha): 9.0 | Preemergence herbicidal rating GLXMAW ([17]; Rate 0.0620 kg/ha): 7.5 | Preemergence herbicidal rating GLXMAW ([17]; Rate 0.1250 kg/ha): 9.0 | Preemergence herbicidal rating GLXMAW ([17]; Rate 0.2500 kg/ha): 8.0 | ZEAMX herbicidal rating (ZEAMX (Corn, Field) [18]; rate 0.0320 kg/ha): 4.0 | ZEAMX herbicidal rating (ZEAMX (Corn, Field) [18]; rate 0.0620 kg/ha): 5.0 | GLXMAW herbicidal rating ([19]; rate 0.0320 kg/ha): 7.5 | GLXMAW herbicidal rating ([19]; rate 0.0620 kg/ha): 7.5

C=C1COC(c2nsc3ccc(-n4c(=O)cc(C(F)(F)F)n(C)c4=O)cc23)OC1 [Compound 58, 2,4(1H,3H)-pyrimidinedione, 1-methyl-3-[3-(5-methylene-m-dioxan-2-yl)-1,2-benzisothiazol-5-yl]-6-(trifluoromethyl)-]
herbicidal rating, SAGPY ([1]; rate 0.0320 kg/ha): 2.0 | herbicidal rating, SAGPY ([1]; rate 0.1250 kg/ha): 5.0 | Preemergence herbicidal rating ZEAMX (ZEAMX (Corn, Field) [2]; Rate 0.0620 kg/ha): 8.0 | Preemergence herbicidal rating ZEAMX (ZEAMX (Corn, Field) [2]; Rate 0.1250 kg/ha): 9.0 | Preemergence herbicidal rating ZEAMX (ZEAMX (Corn, Field) [2]; Rate 0.2500 kg/ha): 9.0 | GALAP herbicidal rating (GALAP (Galium aparine) [3]; rate 0.0320 kg/ha): 7.0 | GALAP herbicidal rating (GALAP (Galium aparine) [3]; rate 0.0620 kg/ha): 9.0 | Preemergence herbicidal rating GALAP (GALAP (Galium aparine) [20]; Rate 0.0620 kg/ha): 9.0 | Preemergence herbicidal rating GALAP (GALAP (Galium aparine) [20]; Rate 0.1250 kg/ha): 9.0 | Preemergence herbicidal rating GALAP (GALAP (Galium aparine) [20]; Rate 0.2500 kg/ha): 9.0 | Preemergence herbicidal rating TRZAWR ([4]; Rate 0.0620 kg/ha): 7.0 | Preemergence herbicidal rating TRZAWR ([4]; Rate 0.1250 kg/ha): 8.0 | Preemergence herbicidal rating TRZAWR ([4]; Rate 0.2500 kg/ha): 8.0 | Preemergence herbicidal rating AMBEL ([5]; Rate 0.0620 kg/ha): 9.0 | Preemergence herbicidal rating AMBEL ([5]; Rate 0.1250 kg/ha): 9.0 | Preemergence herbicidal rating AMBEL ([5]; Rate 0.2500 kg/ha): 9.0 | Preemergence herbicidal rating CHEAL ([6]; Rate 0.0620 kg/ha): 9.0 | Preemergence herbicidal rating CHEAL ([6]; Rate 0.1250 kg/ha): 9.0 | Preemergence herbicidal rating CHEAL ([6]; Rate 0.2500 kg/ha): 9.0 | Preemergence herbicidal rating CASOB ([7]; Rate 0.0620 kg/ha): 5.5 | Preemergence herbicidal rating CASOB ([7]; Rate 0.1250 kg/ha): 6.5 | Preemergence herbicidal rating CASOB ([7]; Rate 0.2500 kg/ha): 9.0 | ECHCG herbicidal rating ([9]; rate 0.0320 kg/ha): 1.0 | ECHCG herbicidal rating ([9]; rate 0.0620 kg/ha): 3.0 | herbicidal rating, CYPIR (CYPIR (Cyperus iria); rate 0.0320 kg/ha): 6.0 | herbicidal rating, CYPIR (CYPIR (Cyperus iria); rate 0.1250 kg/ha): 9.0 | IPOHE herbicidal rating ([10]; rate 0.0320 kg/ha): 9.0 | IPOHE herbicidal rating ([10]; rate 0.0620 kg/ha): 9.0 | Preemergence herbicidal rating IPOHE ([11]; Rate 0.0620 kg/ha): 6.5 | Preemergence herbicidal rating IPOHE ([11]; Rate 0.1250 kg/ha): 7.5 | Preemergence herbicidal rating IPOHE ([11]; Rate 0.2500 kg/ha): 9.0 | AMBEL herbicidal rating ([12]; rate 0.0320 kg/ha): 9.0 | AMBEL herbicidal rating ([12]; rate 0.0620 kg/ha): 9.0 | CHEAL herbicidal rating ([13]; rate 0.0320 kg/ha): 3.0 | CHEAL herbicidal rating ([13]; rate 0.0620 kg/ha): 5.0 | CASOB herbicidal rating ([14]; rate 0.0320 kg/ha): 1.0 | CASOB herbicidal rating ([14]; rate 0.0620 kg/ha): 8.0 | ABUTH herbicidal rating ([15]; rate 0.0320 kg/ha): 9.0 | ABUTH herbicidal rating ([15]; rate 0.0620 kg/ha): 9.0 | Preemergence herbicidal rating ORYSAT (ORYSAT (Rice, Tebonnet); Rate 0.0620 kg/ha): 8.5 | Preemergence herbicidal rating ORYSAT (ORYSAT (Rice, Tebonnet); Rate 0.1250 kg/ha): 9.0 | Preemergence herbicidal rating ORYSAT (ORYSAT (Rice, Tebonnet); Rate 0.2500 kg/ha): 9.0 | herbicidal rating, ECHORC ([16]; rate 0.0320 kg/ha): 6.0 | herbicidal rating, ECHORC ([16]; rate 0.1250 kg/ha): 9.0 | Preemergence herbicidal rating GLXMAW ([17]; Rate 0.0620 kg/ha): 9.0 | Preemergence herbicidal rating GLXMAW ([17]; Rate 0.1250 kg/ha): 8.0 | Preemergence herbicidal rating GLXMAW ([17]; Rate 0.2500 kg/ha): 9.0 | ZEAMX herbicidal rating (ZEAMX (Corn, Field) [18]; rate 0.0320 kg/ha): 5.5 | ZEAMX herbicidal rating (ZEAMX (Corn, Field) [18]; rate 0.0620 kg/ha): 5.5 | GLXMAW herbicidal rating ([19]; rate 0.0320 kg/ha): 7.0 | GLXMAW herbicidal rating ([19]; rate 0.0620 kg/ha): 7.5
